According to patent US20190119196A1, “COMPOUNDS FOR THE TREATMENT OF […]” (priority 2016, published 2019):
Read-outs that look alike come from different tables or passages of the source.

Columns and labels:
L6-myotubes [1] = test: Glucose uptake in differentiated L6-myotubes (3H-2-deoxy-glucose); type: cell-based; settings: read-out: Biological example 1: glucose uptake, % increase over the basal level; agonist final concentration 1×10^−5; differentiated L6-myotubes; 50 nM 3H-2-deoxy-glucose
Procedure: (§1) L6-myoblasts were grown in Dulbecco's Modified Eagle's Medium (DMEM) containing 4,5 g/I glucose supplemented with 10% fetal bovine serum, 2 mM L-Glutamine, 50 U/ml penicillin, 50 μg/ml streptomycin and 10 mM HEPES. Cells were plated at 1×10^5 cells per ml in 24-well plates. After reaching 90% confluence the cells were grown in medium containing 2% FBS for 7 days where upon cells differentited into myotubes.
Differentiated L6-myotubes were serum-starved over night in medium containing 0.5% fatty-acid free BSA and stimulated with agonist, […], glucose free medium or PBS and another portion of agonist was added to glucose free medium. […] Cell lysate was mixed with scintillation buffer (Emulsifier Safe, Perkin Elmer and radioactivity detected in a β-counter (Tri-Carb 2800TR, Perkin Elmer). The numerical values in the table are given as % increase over the basal level.

human β2-adrenoceptor = biological target: T1, human β2-adrenoceptor (Homo sapiens, UniProt P07550); test: 3H-CGP 12177 whole cell β2 binding
T1 construct: expressed in transfected cells
Procedure: ^3H-CGP 12177 Whole Cell β2 Binding
Chinese Hamster Ovary (CHO) cells stably expressing the human β2-adrenoceptor were grown in Dulbecco's modified Eagle's medium nutrient mix F12 (DMEM/F12) containing 10% fetal calf serum and 2 mM L-glutamine in a 37° C. humidified 5% CO2:95% air atmosphere. The cells were seeded (100 000 cells/mL) into white-sided, clear-bottomed 96-well isoplates and allowed to grow to confluence for the following day's experiment. Next day, the media was removed from each well of the isoplate. Aliquots of the test compounds (10^−2 M in DMSO) were diluted in DMEM/F12 containing 2 mM L-glutamine (serum-free media) to final concentration ranges of 10^−4 M to 10^−10 M and added to each well. The radioligand ^3H-CGP 12177 was diluted in the same medium (˜1 nM final well concentration) and added to each well. Propranolol and CGP 12177 (10 μM) were used to measure non-specific binding. The cells were incubated for 2 hours at 37° C. After incubation, the cells were washed twice by the addition and removal of 200 μL ice-cold phosphate-buffered saline (PBS). Cells were then lysed with Optiphase Supermix cocktail (100 μL/well) and a clear sealant top was applied to the plate. The plate was left overnight in the dark at room temperature, centrifuged (1000 rpm, 1 min) and measured in a MicroBeta2 Microplate Counter (Perkin Elmer) (10 minutes pre-incubation, 2 min counts/well).
All data points on each binding curve were measured in duplicates. Each 96-well plate also contained four determinations of total and non-specific binding. Non-specific binding was determined in the presence of CGP 12177 and propranolol (10 μM). […] All data points are measured in counts per minute (CPM) and converted into disintegrations per minute (DPM) by dividing the count rate (CPM) with the counting efficiency of the instruments detector (57%). The numerical values were obtained by using the GraphPad Prism 7 programme and are given as -log K (pKi) in the table.

L6-myotubes [2] = test: Measurement of intracellular cAMP levels (alpha screen cAMP kit); type: cell-based; settings: agonist final concentration 1×10^−5, 15 min; differentiated cells; 1 mM IBMX
Procedure: as §1
Differentiated cells were serum-starved over night and stimulated with agonist, final concentration 1×10−^5, for 15 min in stimulation buffer (HBSS supplemented with 1% BSA, 5 mM HEPES and 1 mM IBMX, pH 7,4) The medium was then aspirated and to end the reaction 100 μL of 95% EtOH was added to each well of a 24-well plate and cells were kept in −20° C. over night. The EtOH was let to evaporate and 500 μL of lysis buffer (1% BSA, 5 mM HEPES and 0,3% Tween-20, pH 7.4) was added to each well before put in −80° C. for 30 min and then kept in −20° C. Intracellular cAMP levels were detected using an alpha screen cAMP kit (6760635D from Perkin Elmer). The numerical values in the table are given as % increase over the basal level.

[3] = CHO cells stably expressing the human β2-adrenoceptor, ~1 nM 3H-CGP 12177, 2 hours at 37° C., read-out: Biological example 3: -log K (pKi), 3H-CGP 12177 whole cell β2 binding (converted)

T1 sequence (P07550 whole entry): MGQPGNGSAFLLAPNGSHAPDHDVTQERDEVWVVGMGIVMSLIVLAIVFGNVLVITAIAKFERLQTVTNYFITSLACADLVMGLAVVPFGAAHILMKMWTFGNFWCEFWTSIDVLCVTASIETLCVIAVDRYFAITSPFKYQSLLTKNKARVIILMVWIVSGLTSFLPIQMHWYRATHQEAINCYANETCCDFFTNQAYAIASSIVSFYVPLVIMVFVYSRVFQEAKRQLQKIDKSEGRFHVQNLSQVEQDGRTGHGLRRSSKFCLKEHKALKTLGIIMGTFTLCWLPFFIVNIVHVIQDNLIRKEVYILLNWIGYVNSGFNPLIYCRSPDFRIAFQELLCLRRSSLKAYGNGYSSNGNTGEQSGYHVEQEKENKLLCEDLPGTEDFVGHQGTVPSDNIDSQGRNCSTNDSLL

SMILES: CCCCNCC(O)c1ccc(Cl)c(O)c1 (stereo not drawn) [Example 32, 5-(2-(Butylamino)-1-hydroxyethyl)-2-chlorophenol]
- activation (L6-myotubes [1]): 53%
- Ki (human β2-adrenoceptor; [3]): 6.31 µM
- Biological example 2: intracellular cAMP levels, % increase over the basal level (L6-myotubes [2]): 371%

SMILES: Oc1ccc(C(O)CNCC2CC2)cc1 (stereo not drawn) [Example 3, 4-(2-((Cyclopropylmethyl)amino)-1-hydroxyethyl)phenol]
- activation (L6-myotubes [1]): 86%
- Ki (human β2-adrenoceptor; [3]): 25.1 µM
- Biological example 2: intracellular cAMP levels, % increase over the basal level (L6-myotubes [2]): 18%

SMILES: CCCCNCC(O)c1cc(Cl)c(N)c(C(F)(F)F)c1 (stereo not drawn) [Example 30, 1-(4-Amino-3-chloro-5-(trifluoromethyl)phenyl)-2-(butylamino)ethan-1-ol]
- activation (L6-myotubes [1]): 50%
- Ki (human β2-adrenoceptor): 0.0794 µM
- Biological example 2: intracellular cAMP levels, % increase over the basal level (L6-myotubes [2]): 231%

SMILES: Oc1ccc(C(O)CNCCC2CC2)cc1 (stereo not drawn) [Example 22, 4-(2-((2-Cyclopropylethyl)amino)-1-hydroxyethyl)phenol]
- activation (L6-myotubes [1]): 30%
- Ki (human β2-adrenoceptor; [3]): 12.6 µM
- Biological example 2: intracellular cAMP levels, % increase over the basal level (L6-myotubes [2]): 20%

SMILES: CCCC(C)NCC(O)c1cccc(O)c1 (mixture of isomers) [Example 15, 3-(1-Hydroxy-2-(pentan-2-ylamino)ethyl)phenol]
- activation (L6-myotubes [1]): 31%
- Ki (human β2-adrenoceptor; [3]): 0.794 µM
- Biological example 2: intracellular cAMP levels, % increase over the basal level (L6-myotubes [2]): 20%

SMILES: CCCC(C)NCC(O)c1ccc(O)c(Cl)c1 (mixture of isomers) [Example 19, 2-Chloro-4-(1-hydroxy-2-(pentan-2-ylamino)ethyl)phenol]
- activation (L6-myotubes [1]): 30%
- Ki (human β2-adrenoceptor; [3]): 0.501 µM
- Biological example 2: intracellular cAMP levels, % increase over the basal level (L6-myotubes [2]): −52%
